Starred links: 1 amine or outer side, 2 acyl side, 3 side chain; linkers in the order of their positions; H or OH if unused. Non-standard residues stand in square brackets, D forms with d. Groups on a side chain read outwards from the residue. No end group written: not given here. *: point of attachment. C18 diacid = O=C(O)CCCCCCCCCCCCCCCCC(=O)*; γGlu = O=C(O)[C@H](CCC(=O)[*:2])N[*:1]; αMe4Pal = C[C@](N)(Cc1ccncc1)C(=O)O; 4Pal = N[C@@H](Cc1ccncc1)C(=O)O; αMeL = CC(C)C[C@](C)(N)C(=O)O; Orn = NCCC[C@H](N)C(=O)O; Dab = NCC[C@H](N)C(=O)O; AEEA = NCCOCCOCC(=O)O; Aib = CC(C)(N)C(=O)O
What was measured:
[1] = tested on: Intestinal organoid from Göttingen minipig jejunum tissue, 2D monolayer; assay: Cell based in vitro permeability (Papp) assay; format: in vitro ADME
Procedure, shortened: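 2D monolayers derived from Göttingen minipig jejunal organoids on transwell inserts. Basal samples collected at 20 min in the presence of C10. Peptide in apical and basal compartments quantified by LC/MS to give Papp.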

hGcgR = hGcgR (Homo sapiens, UniProt P47871); assay: Functional cAMP activation in the presence of 0.1% casein (no HSA); format: cell-based; conditions: in the presence of 0.1% casein (no HSA); geometric mean; read-out: Relative cAMP EC50, hGcgR;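 further: intracellular cAMP rise after 30 min at 37 °C, read by HTRF against a cAMP standard curve, scaled from buffer only (0%) to maximal control ligand response (100%)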
human GLP1-R = human GLP1-R (Homo sapiens, UniProt P43220); assay: GLP1-R internalization assay in HEK293 cells; format: cell-based; conditions: for EC50: HEK293 cells expressing SNAP-GLP-1R, read-out: GLP1R Internalization EC50; for Internalization % TOP: normalized to maximum concentration of GLP-1 (100%)
hGLP-1R [2] = biological target: T1, hGLP-1R (Homo sapiens, UniProt P43220); assay: Functional cAMP activity in the presence of 1% HSA; format: cell-based; conditions: read-out: cAMP Rel EC50, hGLP-1R
hGLP-1R [3] = biological target: T1, hGLP-1R; assay: Functional cAMP activation in the presence of 0.1% casein (no HSA); format: cell-based; conditions: in the presence of 0.1% casein (no HSA); geometric mean; read-out: Relative cAMP EC50, hGLP-1R;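 further: intracellular cAMP rise after 30 min at 37 °C read by HTRF, normalized between buffer only (0%) and maximal control ligand (100%), four-parameter variable-slope fit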
human GcgR = human GcgR (Homo sapiens, UniProt P47871); assay: Functional cAMP activity in the presence of 1% HSA; format: cell-based; conditions: read-out: cAMP Rel EC50, hGcgR
hGIPR [4] = biological target: T2, hGIPR (Homo sapiens, UniProt P48546); assay: Functional cAMP activation in the presence of 0.1% casein (no HSA); format: cell-based; conditions: in the presence of 0.1% casein (no HSA); geometric mean; read-out: Relative cAMP EC50, hGIPR;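 further: intracellular cAMP rise after 30 min at 37 °C read by HTRF against a standard curve, scaled between buffer alone (0%) and top control ligand concentration (100%), four-parameter fit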
T2 sequence (P48546 22-466): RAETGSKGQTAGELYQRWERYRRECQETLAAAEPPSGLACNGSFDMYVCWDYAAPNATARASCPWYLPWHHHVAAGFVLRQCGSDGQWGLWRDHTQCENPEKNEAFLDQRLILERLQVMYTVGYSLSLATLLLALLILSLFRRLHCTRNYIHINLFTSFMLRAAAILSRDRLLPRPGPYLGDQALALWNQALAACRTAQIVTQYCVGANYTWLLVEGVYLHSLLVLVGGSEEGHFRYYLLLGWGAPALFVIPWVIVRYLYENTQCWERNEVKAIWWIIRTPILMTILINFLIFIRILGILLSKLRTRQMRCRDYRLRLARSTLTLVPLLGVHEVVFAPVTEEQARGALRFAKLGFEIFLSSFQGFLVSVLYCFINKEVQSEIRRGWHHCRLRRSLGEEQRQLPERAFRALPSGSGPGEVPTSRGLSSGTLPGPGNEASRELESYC

hGIPR [5] = biological target: T2, hGIPR; assay: Functional cAMP activity in the presence of 1% HSA; format: cell-based; conditions: read-out: cAMP Rel EC50, hGIPR
[6] = biological target: Pro-Link-tagged Human GLP-1R (human) (UniProt P43220); assay: cell-based or functional assay
Pro-Link-tagged Human GLP-1R (human), sequence (P43220 24-463): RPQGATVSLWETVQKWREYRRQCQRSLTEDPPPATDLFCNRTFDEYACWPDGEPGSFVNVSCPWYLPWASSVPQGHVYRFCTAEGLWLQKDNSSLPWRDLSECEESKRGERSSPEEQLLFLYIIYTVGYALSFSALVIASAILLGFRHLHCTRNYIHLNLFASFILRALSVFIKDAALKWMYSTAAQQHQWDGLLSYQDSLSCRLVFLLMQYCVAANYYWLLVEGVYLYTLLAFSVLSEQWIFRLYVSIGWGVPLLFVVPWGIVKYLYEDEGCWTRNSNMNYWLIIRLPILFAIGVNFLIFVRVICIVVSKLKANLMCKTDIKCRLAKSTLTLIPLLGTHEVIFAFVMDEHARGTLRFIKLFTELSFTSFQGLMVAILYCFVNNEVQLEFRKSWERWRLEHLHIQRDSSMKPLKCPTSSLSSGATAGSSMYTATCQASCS

hGcgR, sequence (P47871 26-477): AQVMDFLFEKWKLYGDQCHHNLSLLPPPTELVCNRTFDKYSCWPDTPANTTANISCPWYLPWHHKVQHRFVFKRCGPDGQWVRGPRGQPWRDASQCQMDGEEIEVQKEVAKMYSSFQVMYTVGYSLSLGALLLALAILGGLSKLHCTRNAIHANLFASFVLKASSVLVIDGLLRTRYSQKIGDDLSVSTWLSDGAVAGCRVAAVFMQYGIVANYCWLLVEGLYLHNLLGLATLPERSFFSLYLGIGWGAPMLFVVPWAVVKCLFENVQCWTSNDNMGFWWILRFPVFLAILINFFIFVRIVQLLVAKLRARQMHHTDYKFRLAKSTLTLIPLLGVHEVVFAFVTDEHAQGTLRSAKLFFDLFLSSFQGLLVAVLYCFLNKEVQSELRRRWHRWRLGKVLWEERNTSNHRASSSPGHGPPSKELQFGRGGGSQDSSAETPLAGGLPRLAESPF
human GcgR, sequence (P47871 26-477): as above
human GLP1-R, sequence (P43220 24-463): as the sequence (P43220 24-463) above
T1 sequence (P43220 24-463): as above

Substance	Relative Papp (Compared to internal standard) [1]	EC50 (hGcgR) [nM]	EC50 (human GLP1-R) [nM]	Internalization % TOP (human GLP1-R) [%]	EC50 (hGLP-1R [2]) [nM]	EC50 (hGLP-1R [3]) [nM]	EC50 (human GcgR) [nM]	EC50 (hGIPR [4]) [nM]	EC50 (hGIPR [5]) [nM]	% Stimulation Max [6] [%]
H-Y[Aib]QGTFTSD[4Pal]SQ[αMeL]LDKK([AEEA-γGlu-C18 diacid])AQ[αMe4Pal]AFIEYLIE[Aib]GESSGAPPPSGS-NH2 [Example 226]	0.36	3.08	29.1	59.3	354	1.97	763	0.127	32.2	
H-Y[Aib]QGTFTSD[4Pal]SR[αMeL]LDKK([AEEA-γGlu-C18 diacid])AQ[Aib]AFIEYLIE[Aib]GESSGAPPPSGS-NH2 [Example 187]	0.48	14.8	17.2	57	178	1.11	2970	0.111	15.6	
H-Y[Aib]QGTFTSD[4Pal]SR[αMeL]LDKK([AEEA-γGlu-C18 diacid])AQ[αMe4Pal]AFIEYLIE[Aib]GESSGAPPPSGE-NH2 [Example 225]	0.48	2.36	26	56.7	438	2.44	561	0.213	40.2	
H-Y[Aib]QGTFTSD[4Pal]SR[αMeL]LDKK([AEEA-γGlu-C18 diacid])AQ[αMe4Pal]AFIEYLIE[Aib]GESSGAPPPSGS-NH2 [Example 224]	0.35	1.91	32.2	61.9	333	1.89	452	0.114	21.5	
H-Y[Aib]QGTFTSD[4Pal]S[Dab][αMeL]LDKK([AEEA-γGlu-C18 diacid])AQ[Aib]AFIEYLIE[Aib]GESSGAPPPSGS-NH2 [Example 188]	0.46	10.8	44.7	40.2	436	3.43	2920	0.193	43.8	
H-Y[Aib]QGTFTSD[4Pal]S[Orn][αMeL]LDKK([AEEA-γGlu-C18 diacid])AQ[Aib]AFIEYLLAGGPSSGEPPPSGS-NH2 [Example 154]	0.12	8.72	47.7	65.9	569	4.94	1040	0.227	29.7	
H-Y[Aib]QGTFTSD[4Pal]S[Orn][αMeL]LDKK([AEEA-γGlu-C18 diacid])AQ[αMe4Pal]AFIEYLIE[Aib]GESSGAPPPSGS-NH2 [Example 223]	0.29	1.57	45.8	59.3	627	2.83	373	0.215	37.2	
Tirzepatide (peptide)										10.5
Y[Aib]QGTFTSDFS[Orn][αMeL]LDKK([AEEA-AEEA-γGlu-C18 diacid])AQ[Aib]AFIEYLLE[dA]GPSSGEPPPSGS-NH2 [Example 155]	0.07	5.68	85.1	54.5	503	2.98	1310	0.177	18.9	

Source: US20240270821A1, “GIP/GLP1/GCG TRI-RECEPTOR AGONISTS AND USES THEREOF” (priority 2023, published 2024)
